“Also recorded” adds a separate entry of the source.
What was measured:
mouse lung = experiment: Nebulized FFL mRNA delivery to mice, lung bioluminescence (IVIS); format: in vivo, C57BL/6 mice; details: for Nebulized lung delivery compared between lipids/NPs: 1 mg dose via nose cone, 6 hr, T1-5 formulated with bPEG20K and NaAc; for In vivo performance via nebulization vs C12-200: 1 mg mRNA dose (FIG. 6A); for Nebulized delivery in NaAc buffer with bPEG20K vs PBS with no excipient: T1-5 LNPs
Description: In vivo nebulized delivery. In vivo nebulized delivery of mRNA to C57BL/6 mice (Jackson Laboratory) was performed either in a whole-body exposure chamber or a nose-only exposure chamber (CH Technologies) where specified. LNPs at 0.3 mg/mL of mRNA were loaded into the nebulizer at required volumes with 2% w/v excipients where specified. For the whole-body exposure chamber, the nebulizer was connected to the chamber via a tee and an oxygen flow rate of 15 SCFH was used to direct aerosol into the chamber. For the nose-only exposure chamber, mice were immobilized in restrainers and the restrainers connected to the chamber. A flow rate of 2 SLPM of oxygen was used and pressure within the chamber was maintained at −0.1 din. H2O.
In vivo bioluminescence, 6 h after nebulization, unless otherwise noted, mice were injected intraperitoneally with 0.2 ml XenoLight D-luciferin (10 mg/mL in DPBS, PerkinElmer). For whole-body imaging, mice were anesthetized in a ventilated anesthesia chamber with 2.5% isofluorane in oxygen and imaged 10 min after luciferin injection. Otherwise, mice were sacrificed 10 min after luciferin injection and organs were collected for imaging. Luminescence was measured with an in vivo imaging system (IVIS, PerkinElmer) and quantified using the Living Image software (PerkinElmer).

nose = experiment: Nebulized FFL mRNA delivery to mice, luminescence in nose; format: in vivo
[1] = Toxicity study after repeat nebulized dosing (weight, serum ALT/AST); format: in vivo, mice; details: repeated nebulized delivery
Description: (FIG. 6A). […] To determine whether the protein expression in the lung could be controlled by nebulized dose, a dose-response study of the three LNPs was performed, whereby mice were nebulized with 0.25, 0.5, or 1 mg of mRNA. For all three LNPs, there was an increase in lung luminescence corresponding to increasing dose (FIG. 14A). […] For mRNA protein-replacement therapies to treat pulmonary diseases like cystic fibrosis, repeat dosing of the therapeutic will be required unless genome editing is possible. Therefore, the ability to repeat-dose nebulized LNPs was characterized by administration of 1 mg of FFL mRNA every 72 h, with measurement of lung luminescence 6 h after each nebulization. For all LNPs, no loss in lung luminescence was observed over the course of the three administrations (FIG. 6B). Additionally, repeated delivery of the nebulized LNPs was well tolerated as evidenced by the lack of weight loss (FIG. 27) and normal liver enzyme levels (FIG. 14B) in mice.
Toxicity study, 48 h after the third nebulization of FFL mRNA in the repeat dosing study, mice were bled and sera was isolated using microcentrifugation in BD SST microtainers. Serum was analyzed for ALT and AST levels (Custom lipid panel 62149, IDEXX Bioanalytics).

[2] = tested on: ALI cultures derived from primary human bronchial epithelial cells; details: for mRNA delivery in small and large airway ALI cultures, lipids and tail/headgroup variants: handmixed LNPs, not nebulized; for mRNA delivery to small airway ALI cultures: screen of 12 top-performing A549 LNPs
Description: Air-liquid interface (ALI) cultures derived from primary human bronchial epithelial cells were selected. ALI cultures are grown on porous Transwell inserts such that, upon reaching confluence, media can be removed from the top (apical) side of the insert and the cells can be fed from the bottom, basolateral, side (FIG. 12A). This enables recapitulation of the conditions of the native bronchial epithelium, where the apical side of the cells is exposed to the air while the basolateral side is bathed in nutrients.
Primary large airway cells (University of North Carolina at Chapel Hill MLI Tissue Procurement and Cell Culture Core) and primary small airway cells (ATCC) were expanded using PneumaCult-ExPlus (StemCell) according to the instructions for the media and plated for ALI cultures at P3 and P4 respectively.
ALI cultures were plated either onto 0.4 μm pore, 6.5 mm diameter PET Transwell inserts for 24-well plates (Corning) or 0.4 μm pore polycarbonate inserts for 96-well plates (Corning). The 24-well plates were used for histology, the two-week transfection timecourse, and TEER measurements; 96-well plates were used for all other experiments, 33,000 cells/well were seeded in the 24 well inserts and 15,000 cells/well were seeded in the 96-well plate inserts.
Per manufacturer instructions, cultures were grown to confluence with both apical and basolateral (ExPlus) media for 2-4 days before airlift. […] Upon airlift, apical media was removed and basolateral media was changed to PneumaCult-ALI (for large airway cells) or ALI-S (for small airway cells) media (StemCell). […] Media was changed 3 times/week and cells were not transfected until at least 20 days of ALI culture.
In vitro transfection experiments. […] The next day. […] For ALI cultures.

[3] = LNP size by DLS before and after nebulization; format: physicochemical; details: nebulized in the presence of bPEG20K and NaAc buffer
Description: Nebulization of nanoparticles. For characterizing effects of nebulization on LNP size, encapsulation efficiency, and transfection efficiency, 100 uL of LNPs at 150 ng/uL were loaded into an Aeroneb vibrating mesh nebulizer (Aerogen) and nebulized into 1.5 mL microcentrifuge tubes. Where specified, 2% w/v of excipients were added to the LNP formulation following dialysis and immediately prior to nebulization.

A549 cells = experiment: In vitro FFL mRNA transfection of A549 cells (Bright-Glo); details: microfluidically mixed, nebulized with bPEG20K and NaAc
lung epithelium = experiment: Nebulized Cre mRNA delivery to Ai14 mice, histology count of tdTomato+ airway cells
[4] = nebulized, 1 mg dose, nose cone
[5] = Cre mRNA nebulized over 3 doses
[6] = all cells, Cre mRNA nebulized over 3 doses

Structure (SMILES): CCCCCCCC/C=C\CCCCCCCC(=O)OCCCCCC(O)C(CCCCOC(=O)CCCCCCC/C=C\CCCCCCCC)CN(C)CCCn1cccn1 (stereo not drawn) [IR-19-Py, 5-(((3-(1H-pyrazol-1-yl)propyl)(methyl)amino)methyl)-6-hydroxyundecane-1,11-diyl dioleate]
- Nebulized lung delivery compared between lipids/NPs (mouse lung): statistically comparable delivery to C12-200
- In vivo performance via nebulization vs C12-200 (mouse lung): performed comparably to C12-200
- Nebulized delivery in NaAc buffer with bPEG20K vs PBS with no excipient (mouse lung): improves nebulized delivery of both LNPs compared to PBS
- Protein expression / mRNA delivery in the nose (nose): significantly outperform state-of-the-art mRNA delivery formulations; also recorded: particularly high and extended protein expression was observed in the nose
- Tolerability of nebulized LNPs [1]: no apparent toxicity
- mRNA delivery in small and large airway ALI cultures, lipids and tail/headgroup variants [2]: outperformed other screened lipids in ALI cultures
- mRNA delivery to small airway ALI cultures [2]: excellent performance

Structure (SMILES): CCCCC/C=C\C/C=C\CCCCCCCC(=O)OCCCCCC(O)C(CCCCOC(=O)CCCCCCC/C=C\C/C=C\CCCCC)CNCCCN(CCCC)CCCC (stereo not drawn) [IR-117-17, 5-(((3-(dibutylamino)propyl)amino)methyl)-6-hydroxyundecane-1,11-diyl (9Z,9′Z,12Z,12′Z)-bis(octadeca-9,12-dienoate)]
- Nebulized lung delivery compared between lipids/NPs (mouse lung): significantly outperform state-of-the-art mRNA delivery formulations; also recorded: significantly outperformed C12-200
- In vivo performance via nebulization vs C12-200 (mouse lung): outperformed C12-200
- Lung luminescence (mouse lung; 6 hr after 1 mg dose via nose cone, lipids T1-5 formulated with bPEG20K and NaAc): 1.1×10^6 p s^−1 cm^−2 sr^−1
- Nebulized delivery in NaAc buffer with bPEG20K vs PBS with no excipient (mouse lung): improves nebulized delivery of both LNPs compared to PBS
- Fold improvement of IR-117-17 lung mRNA delivery over NLD1 (mouse lung; [4]): 300 fold
- Improvement of IR-117-17 lung mRNA delivery over polymeric PBAE nanoparticle (mouse lung; [4]): twofold; also recorded: two-fold
- Average diameter after nebulization [3]: 116 nm
- Tolerability of nebulized LNPs [1]: no apparent toxicity
- mRNA delivery in small and large airway ALI cultures, lipids and tail/headgroup variants [2]: outperformed other screened lipids in ALI cultures
- mRNA delivery to small airway ALI cultures [2]: excellent performance
- FFL delivery to A549 cells, post-nebulized LNPs (A549 cells): effective
- Small airways with at least 1 transfected cell (lung epithelium; 140/151 airways): 93%
- Club cells transfected, large airway (lung epithelium; [5]): 8.4%
- Club cells transfected, small airway (lung epithelium; [5]): 7.6%
- Transfection of large airway cells (average) (lung epithelium; [6]): 10.3%
- Transfection of small airway cells (average) (lung epithelium; [6]): 8.8%
- Transfection of individual stretches of airway (lung epithelium; some stretches): near-complete transfection
